Key:
HSP70 [1] = test: Curative protection: HSP70 immunolabeling in normal human dermal fibroblasts treated with mangiferin after hot heat stress; type: cell-based
Method: The fibroblasts (NHDFS) are seeded (passage 3) onto glass Labtek culture chambers (8 chambers/slide) to a proportion of 10 000 cells/chamber and incubated for 10 hours in an incubator at 37° C., 5% CO2 and 95% humidity. The culture medium consists of DMEM devoid of phenol red (Invitrogen, ref. 31053028) supplemented with 10% fetal calf serum (FCS) (Invitrogen, ref 16010159, batch 40F1420D), 1% of a solution of non-essential amino acids (Invitrogen, ref 11140035), 100 μg/ml penicillin, 100 U/ml streptomycin, 2 mM L-gluthamine and 1% of a sodium pyruvate solution (Invitrogen, ref. 11360039).
The NHDFs are rinsed in the HBSS solution then incubated 15 hours in the culture medium (DMEM with 1% FCS), in an incubator at 37° C., 5% CO2 and 95% humidity.
The cells are subsequently rinsed in an HBSS solution (Invitrogen, ref. 14025050) then placed under conditions of hot thermal stress: incubation 1 hour at +45° C. in the HBSS solution (0.4 ml per chamber).
After the stress, the cells are rinsed in the HBSS solution then treated for 8 hours with the mangiferin solubilized in the DMSO, then diluted in the culture medium (DMEM with 1% FCS) to 2.10^−4%. A reference culture medium is also made on the same slide.
The cells are rinsed in an HBSS solution 8 hours after the stress. The culture chambers are removed and the cells left to dry under a laminar flow hood. […]

HSP70 [2] = test: Preventive protection: HSP70 immunolabeling in normal human dermal fibroblasts treated with mangiferin before hot heat stress; type: cell-based
Method: Normal human dermal fibroblasts (NHDFs) are seeded (passage 3) onto glass Labtek culture chambers (8 chambers/slide) to a proportion of 10 000 cells/chamber and incubated for 10 hours in an incubator at 37° C., 5% CO2 and 95% humidity. The culture medium consists of DMEM devoid of phenol red (Invitrogen, ref. 31053028) supplemented with 10% fetal calf serum (FCS) (Invitrogen, ref 16010159, batch 40F1420D), 1% of a solution of non-essential amino acids (Invitrogen, ref 11140035), 100 μg/ml penicillin, 100 U/ml streptomycin, 2 mM L-gluthamine and 1% of a sodium pyruvate solution (Invitrogen, ref. 11360039).
The NHDFs are treated for 15 hours with mangiferin solubilized at 0.1% in DMSO, then diluted in the culture medium (DMEM with 1% FCS) to 2.10^−4%. A reference culture medium is also made on the same slide. To validate the study, a slide is treated in the same manner but the cells are not subjected to stress.
The cells are subsequently rinsed in Hanks Balanced Saline Solution (HBSS buffer Invitrogen, ref. 14025050) then placed under hot thermal stress conditions: incubation 1 hour at +45° C. in the HBSS solution (0.4 ml per chamber.).
After the stress, the cells are rinsed in the HBSS solution then incubated 8 hours in the culture medium (DMEM with 1% FCS), in an incubator at 37° C., 5% CO2 and 95% humidity.
The cells are rinsed in HBSS solution 8 hours after the stress. […]

[3] = cited from earlier work
MMP1 metalloprotease = test: Assay of MMP1 metalloprotease (ELISA, per viable cell unit by MTT) in NHDFs after heat stimulation; type: cell-based, human; settings: mangiferin 2.10^-4% w/v, MMP1 per viable cell unit vs reference without mangiferin
Excerpt: In this example, to illustrate the inhibitive action of mangiferin on the expression of MMP enzymes, the quantity of MMP1 enzymes present in normal human dermal fibroblasts (NHDFs) after a heat stress in the presence of mangiferin was compared with the quantity obtained for NHDFs in a reference medium subjected to the same conditions but without the presence of mangiferin.
This comparison was made for different conditions of heat treatment (no stress, hot stress, cold stress).
In each case, the tested NHDFs were placed in culture then treated under the following conditions:
The first day (day D), the NHDFs were seeded to a proportion of 160 000 cells/well/mL in 24-well plates in a normal medium.
The following day (day D+1), the culture medium was depleted of serum.
When the test was conducted in the presence of mangiferin, the treatment with mangiferin was complete, i.e. the mangiferin was added to the medium to a content of 2.10^−4 g/100 mL (2.10^−4% w/v) 24 hours before the heat stress, during the heat stress and 24 hours after the onset of heat stress.
On the contrary, no mangiferin at all was added to the references.
After these steps, 24 hours after the heat stress, the MMP1 present in the medium was assayed using a quantitative technique of ELISA type, with a commercial Amersham kit. In parallel, the number of viable cells in the medium was determined using the MTT colorimetric test. On the basis of these elements, a MMP1 content was determined per viable cell unit.
For each of the heat treatment conditions, a reduction in MMP1 content was observed per viable cell unit in the presence of mangiferin, compared with the content obtained in the references without mangiferin. In this respect, a percentage inhibition of MMP1 expression (Pi) is defined which is calculated using the following formula: Pi(as %)=(Tt−Tm)/Tt in which: • Tm designates the MMP1 content per viable cell unit in the presence of mangiferin; • Tt designates the MMP1 content per viable cell unit for the reference without mangiferin under the same heat treatment conditions.

## O=c1c2cc(O)c(O)cc2oc2cc(O)c([C@@H]3O[C@H](CO)[C@@H](O)[C@H](O)[C@H]3O)c(O)c12 [mangiferin, C-glucoside of tetrahydroxy-1,3,6,7 xanthone]
HSP70 [1]; NHDFs treated with mangiferin 2.10^-4% for 8 hours after stress (1 hour at +45° C.), vs untreated stressed cells
  Labeling of the HSP70s: reduced
HSP70 [1]; NHDFs, no stress, mangiferin 2.10^-4% for 8 hours
  Basic expression of the HSP70s (labeling): not modified
HSP70 [2]; NHDFs treated with mangiferin 2.10^-4% for 15 hours before stress (1 hour at +45° C.), read 8 hours after stress, vs untreated stressed cells
  Labeling of the HSP70s: further intensified
HSP70 [2]; NHDFs, no stress, mangiferin 2.10^-4% for 15 hours
  Basic expression of the HSP70s (labeling): not modified
[3]; alkaline liquids (salt formation by phenol OH groups)
  Solubility in alkaline liquids: soluble
[3]; cold water
  Solubility in cold water: scarcely soluble
MMP1 metalloprotease; Cold heat stress: 10 min at −20° C.
  Percentage inhibition Pi of MMP1 expression: 22%
MMP1 metalloprotease; Hot heat stress: 30 min at +45° C.
  Percentage inhibition Pi of MMP1 expression: 51%
MMP1 metalloprotease; Hot heat stress: 30 min at +50° C.
  Percentage inhibition Pi of MMP1 expression: 40%
MMP1 metalloprotease; Hot heat stress: 1 h at +45° C.
  Percentage inhibition Pi of MMP1 expression: 36%
MMP1 metalloprotease; No heat stress: 1 h at +37° C.
  Percentage inhibition Pi of MMP1 expression: 34%
